Several values for one entry are separate records, joined by “and”; a condition that tells them apart may be missing. Equal entries are not always repeated. Inconclusive results and toxic doses are left out. Rule as the data show it: active = T/C of 150% or more; inactive = T/C below 125%. Square brackets hold non-standard residues; d marks the D form. Peptide text beside a SMILES is read from it. * marks the point of attachment. ξ: configuration not given here. Cbz = O=C(OCc1ccccc1)*; ξNva = CCCC(N)C(=O)O
Tested on: L1210 leukemia ip in BDF1 mice, survival T/C
Assay: NCI In Vivo Anticancer Drug Screen. Data for tumor model L1210 Leukemia (intraperitoneal) in B6D2F1 (BDF1) mice
Conditions: endpoint: mean survival time, higher = longer survival
Summary of the method: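 In this screen, tumor-bearing mice given compound are compared to those given vehicle, and their survival values are reported as a treated-to-control quotient.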

[1] = dose: 25.0 mg/kg/injection, schedule: Q04DX003 (ip), vehicle: saline with Tween-80
[2] = dose: 50.0 mg/kg/injection, schedule: Q04DX003 (ip), vehicle: saline with Tween-80
[3] = dose: 100.0 mg/kg/injection, schedule: Q01DX009 (ip), vehicle: saline with Tween-80
[4] = dose: 100.0 mg/kg/injection, schedule: Q01DX009 (ip), vehicle: Klucel (hydroxypropylcellulose) (HPC)
[5] = dose: 100.0 mg/kg/injection, schedule: Q04DX003 (ip), vehicle: Klucel (hydroxypropylcellulose) (HPC)
[6] = dose: 200.0 mg/kg/injection, schedule: Q01DX009 (ip), vehicle: Klucel (hydroxypropylcellulose) (HPC)
[7] = dose: 200.0 mg/kg/injection, schedule: Q04DX003 (ip), vehicle: Klucel (hydroxypropylcellulose) (HPC)
[8] = dose: 400.0 mg/kg/injection, schedule: Q01DX009 (ip), vehicle: Klucel (hydroxypropylcellulose) (HPC)
[9] = dose: 400.0 mg/kg/injection, schedule: Q04DX003 (ip), vehicle: Klucel (hydroxypropylcellulose) (HPC)
[10] = dose: 100.0 mg/kg/injection, schedule: Q01DX001 (ip), vehicle: saline
[11] = dose: 200.0 mg/kg/injection, schedule: Q01DX001 (ip), vehicle: saline
[12] = dose: 400.0 mg/kg/injection, schedule: Q01DX001 (ip), vehicle: saline
[13] = dose: 100.0 mg/kg/injection, schedule: Q04DX003 (ip), vehicle: saline with Tween-80
[14] = dose: 200.0 mg/kg/injection, schedule: Q04DX003 (ip), vehicle: saline with Tween-80
[15] = dose: 400.0 mg/kg/injection, schedule: Q04DX003 (ip), vehicle: saline with Tween-80
[16] = dose: 25.0 mg/kg/injection, schedule: Q01DX009 (ip), vehicle: Klucel (hydroxypropylcellulose) (HPC)
[17] = dose: 50.0 mg/kg/injection, schedule: Q01DX009 (ip), vehicle: Klucel (hydroxypropylcellulose) (HPC)

Measured: T/C

CC(C)C1C(=O)N2CCCC2C2(O)OC(C(=O)NCCc3c[nH]c4ccccc34)(C(C)C)C(=O)N12 (configuration not stated)
inactive: dose: 6.25 mg/kg/injection, schedule: Q04DX003 (ip), vehicle: saline with Tween-80 98 % of control | dose: 12.5 mg/kg/injection, schedule: Q04DX003 (ip), vehicle: saline with Tween-80 111 % of control | dose: 25.0 mg/kg/injection, schedule: Q04DX003 (ip), vehicle: alcohol 98 % of control | [1] 101 % of control | dose: 50.0 mg/kg/injection, schedule: Q04DX003 (ip), vehicle: alcohol 105 % of control | [2] 98 % of control | dose: 100.0 mg/kg/injection, schedule: Q04DX003 (ip), vehicle: alcohol 98 % of control | dose: 200.0 mg/kg/injection, schedule: Q04DX003 (ip), vehicle: alcohol 98 % of control

O=C(NCc1cnccn1)c1ccccc1
inactive: [3] 104 % of control | dose: 200.0 mg/kg/injection, schedule: Q01DX009 (ip), vehicle: saline with Tween-80 98 % of control | dose: 400.0 mg/kg/injection, schedule: Q01DX009 (ip), vehicle: saline with Tween-80 92 % of control

CCCCCC(C)N (configuration not stated)
inactive: dose: 5.0 mg/kg/injection, schedule: Q01DX001 (ip), vehicle: saline 101 % of control | dose: 10.0 mg/kg/injection, schedule: Q01DX001 (ip), vehicle: saline 101 % of control | dose: 20.0 mg/kg/injection, schedule: Q01DX001 (ip), vehicle: saline 95 % of control | dose: 40.0 mg/kg/injection, schedule: Q01DX001 (ip), vehicle: saline 103 % of control | dose: 80.0 mg/kg/injection, schedule: Q01DX001 (ip), vehicle: saline 101 % of control

COc1ccc(C(OC2OC(n3cnc4c(=S)nc(N)[nH]c43)CC2OC(C)=O)(c2ccccc2)c2ccc(OC)cc2)cc1 (configuration not stated)
inactive: [4] 97 % of control | [5] 101 % of control | [6] 97 % of control | [7] 97 % of control | [8] 95 % of control | [9] 97 % of control

O=[N+]([O-])c1ccc2c(N=Nc3c(O)ccc4ccccc34)c(O)cc(S(=O)(=O)O)c2c1
inactive: dose: 50.0 mg/kg/injection, schedule: Q04DX003 (ip), vehicle: saline 98 % of control | [10] 92 % of control | [11] 92 % of control | dose: 200.0 mg/kg/injection, schedule: Q04DX003 (ip), vehicle: saline 92 % of control

NS(=O)(=O)c1cc2c(cc1Cl)NC(CC1CCCC1)NS2(=O)=O (configuration not stated)
inactive: [10] 105 % of control | [11] 100 % of control | [12] 107 % of control

CCN(C(=O)c1cc(OC)c(OC)c(OC)c1)C1CCCCC1
inactive: [13] 101 % of control | [14] 107 % of control | [15] 96 % of control

[N-]=[N+]=Nc1ccc(C(=O)NCc2cnc(N)nc2N)cc1
inactive: dose: 100.0 mg/kg/injection, schedule: Q04DX002 (ip), vehicle: saline with Tween-80 98 % of control

CCCC(NC(=O)CNC(=O)CNC(=O)OCc1ccccc1)C(=O)OC (stereo not drawn) (Cbz-Gly-Gly-[ξNva]-OMe)
inactive: [13] 98 % of control | [14] 97 % of control | [15] 103 % of control

CCCCCCCCCCCC(=O)NC(CCC(=O)O)C(=O)O (configuration not stated)
inactive: [10] 111 % of control | [11] 103 % of control | [12] 105 % of control

O=C(Cc1ccccc1)c1ccc2c3c(ccc([N+](=O)[O-])c13)CC2
inactive: dose: 100.0 mg/kg/injection, schedule: Q04DX003 (ip), vehicle: acetone 101 % of control | dose: 200.0 mg/kg/injection, schedule: Q04DX003 (ip), vehicle: acetone 105 % of control | dose: 400.0 mg/kg/injection, schedule: Q04DX003 (ip), vehicle: acetone 105 % of control

CCOC(=O)C(C(=O)O)C(C)C (configuration not stated)
inactive: [10] 97 % of control | [11] 93 % of control

COC(=O)C1C2CC(C3OC23)C1C(=O)OC (configuration not stated)
inactive: dose: 100.0 mg/kg/injection, schedule: Q01DX009 (ip), vehicle: other 110 % of control | dose: 200.0 mg/kg/injection, schedule: Q01DX009 (ip), vehicle: other 108 % of control | dose: 400.0 mg/kg/injection, schedule: Q01DX009 (ip), vehicle: other 93 % of control

Cc1ccc(C)c(NC(=O)N(Cc2ccccc2)Cc2ccccc2)c1
inactive: [4] 94 % of control | [6] 91 % of control | [8] 96 % of control

CCC(CO)NC(=O)C1C=C2c3cccc4c3c(cn4C)CC2N(C)C1 (configuration not stated)
inactive: [16] 94 % of control and 101 % of control | dose: 25.0 mg/kg/injection, schedule: Q04DX003 (ip), vehicle: Klucel (hydroxypropylcellulose) (HPC) 97 % of control | [17] 94 % of control and 101 % of control | dose: 50.0 mg/kg/injection, schedule: Q04DX003 (ip), vehicle: Klucel (hydroxypropylcellulose) (HPC) 103 % of control | [4] 111 % of control and 91 % of control | [5] 108 % of control | [6] 120 % of control and 121 % of control | [7] 109 % of control | [8] 120 % of control | [9] 104 % of control

COc1ccccc1CN1CCCN(Cc2ccccc2OC)C1c1cc(Cl)ccc1O
inactive: dose: 50.0 mg/kg/injection, schedule: Q01DX001 (ip), vehicle: saline 101 % of control | [10] 95 % of control | [11] 97 % of control | [12] 101 % of control

CCC(=O)N(C)C(=NC)c1ccc(NC(=O)c2ccc(C(=O)Nc3ccc(C(=NC)N(C)C(=O)CC)cc3)cc2)cc1
inactive: dose: 75.0 mg/kg/injection, schedule: Q01DX015 (ip), vehicle: carboxymethylcellulose (CMC) 90 % of control | dose: 100.0 mg/kg/injection, schedule: Q01DX015 (ip), vehicle: carboxymethylcellulose (CMC) 91 % of control | dose: 150.0 mg/kg/injection, schedule: Q01DX015 (ip), vehicle: carboxymethylcellulose (CMC) 90 % of control | dose: 200.0 mg/kg/injection, schedule: Q01DX015 (ip), vehicle: carboxymethylcellulose (CMC) 97 % of control

CC(=O)OCC1OC([S][Sb]([CH3])[CH3])C(OC(C)=O)C(OC(C)=O)C1OC(C)=O (configuration not stated)
inactive: dose: 12.5 mg/kg/injection, schedule: Q01DX009 (ip), vehicle: Klucel (hydroxypropylcellulose) (HPC) 96 % of control | [16] 102 % of control | [17] 93 % of control

O=C(c1ccc(C(=O)N2CC2)cc1)N1CC1
inactive: dose: 5.0 mg/kg/injection, schedule: Q04DX003 (ip), vehicle: carboxymethylcellulose (CMC) 106 % of control | dose: 10.0 mg/kg/injection, schedule: Q04DX003 (ip), vehicle: carboxymethylcellulose (CMC) 97 % of control | dose: 20.0 mg/kg/injection, schedule: Q01DX001 (ip), vehicle: carboxymethylcellulose (CMC) 103 % of control | dose: 20.0 mg/kg/injection, schedule: Q04DX003 (ip), vehicle: carboxymethylcellulose (CMC) 94 % of control

CC1=CC(C)(C)NC(=S)N1c1ccccc1
inactive: [5] 103 % of control | [6] 86 % of control | [7] 103 % of control | [8] 87 % of control | [9] 101 % of control

CC(C)(Cl)CCC1=C(Cl)C(=O)c2ccccc2C1=O
inactive: dose: 5.0 mg/kg/injection, schedule: Q01DX001 (ip), vehicle: water 98 % of control | dose: 10.0 mg/kg/injection, schedule: Q01DX001 (ip), vehicle: water 98 % of control

CC(C)Cc1ccc(OC(=O)Nc2ccc(Cl)cc2)cc1
inactive: [1] 95 % of control | [2] 95 % of control | [13] 95 % of control

Nc1[nH]nc2nc(-c3ccccc3)cnc12
inactive: dose: 25.0 mg/kg/injection, schedule: Q01DX009 (ip), vehicle: saline with Tween-80 121 % of control | dose: 50.0 mg/kg/injection, schedule: Q01DX009 (ip), vehicle: saline with Tween-80 110 % of control | [3] 95 % of control and 102 % of control | [13] 94 % of control | [14] 92 % of control | [15] 92 % of control

O=C(NCCCl)Nc1cccc(C(F)(F)F)c1
inactive: [13] 104 % of control | [14] 107 % of control | [15] 113 % of control

Cc1cccc(Cl)c1NC(=S)Nc1ccccc1
inactive: dose: 100.0 mg/kg/injection, schedule: Q04DX002 (ip), vehicle: Klucel (hydroxypropylcellulose) (HPC) 101 % of control | dose: 200.0 mg/kg/injection, schedule: Q04DX002 (ip), vehicle: Klucel (hydroxypropylcellulose) (HPC) 94 % of control | dose: 400.0 mg/kg/injection, schedule: Q04DX002 (ip), vehicle: Klucel (hydroxypropylcellulose) (HPC) 97 % of control
